Laboratory results as given in patent publication US9393276B2, “Edible composition” (Conopco,Inc., priority 2012, dated 2016).

Legend:
[1] = tested on: Rat Insulinoma cell lines (RIN-5F); assay: β-cell assay for protection against gluco-lipo toxicity (diabetes model); assay type: cell-based; conditions: RIN-5F cells treated with glucose and Palmitate-BSA complex, 18 hrs, neutral red; change with respect to Control 2 (glucose and Palmitate only); wt % of ingredients as per example
Protocol: This RPMI 1640 medium contains 2 g/L of glucose supplemented with 25 mM HEPES (4-(2-hydroxyethyl)-1-piperazineethanesulfonic acid, SRL Cat No: 084023C).
After that a complete medium was prepared by adding 100 μL of 100 mM Sodium pyruvate (Sigma, Cat No: P5280) and 10% (vv) in 100 mL of RPMI 1640.
100 μL/well of complete medium with the added Rat Insulinoma cell (RIN-5F, ATCC (USA)) was plated in a 96 well flat bottom plate (NEST Biotechnology Co. Ltd, Cat No 701001) so that the cell concentration is maintained at a level of 3.5×10^4 cells/well. This plate was then introduced in an incubator (Thermo Scientific, Model 3111; conditions: 5% CO2, at 37° C.) for 24 hours.
2.267 g of ultra Fatty Acid Free BSA (Roche applied sciences, Cat No: 03117405001) was added to 100 mL of 150 mM NaCl and stirred constantly at a maintained temperature of ˜37° C. […] After that this solution was filtered with a syringe filter of pore size of 0.22 μm (Millipore®, Cat no: SLGPO33RS). • 3. […]
After 4 hrs the neutral red medium was removed by aspiration using a micropipette and cells were washed with 100 μL/well of PBS solution (same as prepared above) to remove the excess stain. […] The colorimetric reading (absorbance) of the bound stain was read at a wavelength of 540 nm in a microwell plate reader (BIO-RAD LAB INDIA, Model No. 680). The efficacy of the test ingredients were evaluated with respect to the Control 2.

[2] = tested on: Rat Insulinoma cell lines (RIN-5F); conditions: 24 h
Protocol: Before starting the experiment it was needed to determine the cytotoxic dose for the Inula racemosa extract and theobromine. The cytotoxicity of both materials was determined as follows by Neutral red assay:
The Rat Insulinoma cell lines (RIN-5F, ATCC (USA)) was plated at a density of 3.5×10^4 cells/well (Volume 100 μL) in a 96 well plate (NEST Biotechnology Co. Ltd, Cat No 701001) and placed it in an incubator (Thermo Scientific, Model 3111; conditions: 5% CO2, at 37° C.) for 24 hours. After the incubation 10 μL of Inula racemosa water extract (at different concentration e.g. 10%, 1%, 0.1%, 0.01%, 0.001%, 0.0001% and 0.00001%) and 10 μL of theobromine solution (at different concentration e.g. 10%, 1%, 0.1%, 0.01%, 0.001%, 0.0001% and 0.00001%) were added to the culture and incubated for 24 hours in the same incubator. As a control in some wells there was no addition of either Inula racemosa or theobromine (only medium and cells). […]
The bound stain was extracted out from the cells by adding 150 μL of desorption solution and dissolved the dye completely. […] The absorbance of the stain extracted out from the cells was measured at 540 nm in a microwell plate reader (BIO-RAD LAB INDIA, Model No. 680).
The percentage of live cells was calculated using the below mentioned formula: […]

`Cn1cnc2c1c(=O)[nH]c(=O)n2C` [E, Theobromine] was tested, and the “% change in cell viability” value [1] was 5 ± 2%.

Work on `Cn1cnc2c1c(=O)[nH]c(=O)n2C` [theobromine, 3,7-dimethylxanthine] yielded a non-cytotoxic concentration [2] of at most 0.001%.
